From US20250282760A1 (Merck Sharp & Dohme LLC, priority 2022, published 2025)

Biological target: T1, human OX2R (Homo sapiens, UniProt O43614)
T1 construct: expressed in transfected cells; host or cells: Chinese hamster ovary (CHO) cells, kept under G418 selection
T1 sequence (O43614 1-444): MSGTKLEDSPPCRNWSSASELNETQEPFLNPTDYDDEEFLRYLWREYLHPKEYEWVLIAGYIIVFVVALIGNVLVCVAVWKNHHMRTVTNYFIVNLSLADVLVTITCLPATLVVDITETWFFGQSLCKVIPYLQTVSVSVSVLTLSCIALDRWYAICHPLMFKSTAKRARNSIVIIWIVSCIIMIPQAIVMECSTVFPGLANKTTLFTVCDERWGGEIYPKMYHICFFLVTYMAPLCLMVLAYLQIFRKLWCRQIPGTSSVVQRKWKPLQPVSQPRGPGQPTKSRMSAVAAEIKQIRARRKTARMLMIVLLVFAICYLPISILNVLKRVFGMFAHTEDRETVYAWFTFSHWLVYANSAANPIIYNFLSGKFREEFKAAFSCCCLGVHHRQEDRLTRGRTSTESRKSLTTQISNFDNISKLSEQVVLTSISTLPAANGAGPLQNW
Experiment: IPOne (IP-1 accumulation) assay of orexin receptor agonist activity in CHO cells expressing human OX2R
Format: cell-based
Settings: for IC50: CHO cells expressing human OX2R, IP-One assay, 2 hours incubation, four parameter logistic fit, read-out: hOX2R_IP IC50; for Emax: CHO, percent activity at maximum tested concentration, relative to reference compound at 1 uM (100% activity) for human OX2R
Description: The utility of the compounds in accordance with the present invention as orexin receptor OX1R and/or OX2R agonists may be readily determined without undue experimentation by methodology well known in the art. Both the OX1R and/or OX2R G-coupled protein receptors (GPCRs) couple through the Gαq signaling pathway, which ultimately promotes calcium mobilization via inositol triphosphate (IP3) production. […] The utility of the compounds in accordance with the present invention as orexin receptor OX1R and/or OX2R agonists may be determined utilizing this assay.
In a typical experiment, the OX1 and OX2 receptor agonist activity is determined in accordance with the following general experimental method. Chinese hamster ovary (CHO) cells expressing human OX1R and/or the human OX2R were grown in Iscove's modified DMEM containing glutaMAX™, 1% G418, 100 U/mL penicillin, 100 μg/mL streptomycin and 10% heat-inactivated qualified fetal bovine serum (FBS). […] During this incubation, IP-one detection reagents were prepared (38:1:1 lysis buffer:D2:AB-cryptate reagents).
For each compound, data were fit to a four parameter logistic fit (ActivityBase software) and the EC50 was reported as the inflection point of the resulting curve. Percent effect for each test compound was determined as the percentage of sample raw value/mean max effect, where the mean max effect was derived from the mean raw value of 32 control wells per assay plate (using Orexin A (cat #003-30) at 1 μM for human OX1R and a reference compound at 1 uM with 100% activity previously established by comparison to Orexin A for human OX2R). The intrinsic orexin receptor agonist activity of a compound which may be used in the present invention may be determined by these assays.

Compound `Cc1cc(-c2ccco2)c(F)cc1CNC(=O)[C@@H]1CN(S(=O)(=O)c2ccccc2)C[C@H](C)N1C(=O)C(C)C` (relative stereo) [Example 47-5, cis-N-(5-fluoro-4-(furan-2-yl)-2-methylbenzyl)-1-isobutyryl-6-methyl-4-(phenylsulfonyl) piperazine-2-carboxamide] has an IC50 of 14.6 nM and an Emax of 106%.
`CCc1cc(-c2ccco2)ccc1CNC(=O)[C@H]1CN(S(=O)(=O)c2ccccc2)C[C@@H](C)N1C(=O)C(C)C` (relative stereo) [Example 47-6, cis-N-(2-ethyl-4-(furan-2-yl)benzyl)-1-isobutyryl-6-methyl-4-(phenylsulfonyl)piperazine-2-carboxamide] gave an IC50 of 10.9 nM and an Emax of 99.5%.
`Cc1c(CNC(=O)[C@H]2CN(S(=O)(=O)c3ccccc3)C[C@@H](C)N2C(=O)C(C)C)ccc(-c2ccco2)c1F` (relative stereo) [Example 51, cis-N-(3-fluoro-4-(furan-2-yl)-2-methylbenzyl)-1-isobutyryl-6-methyl-4-(phenylsulfonyl)piperazine-2-carboxamide] showed an IC50 of 85.7 nM and an Emax of 99.8%.
Compound `Cc1cc(-c2ccco2)cnc1CNC(=O)[C@H]1CN(S(=O)(=O)c2ccccc2)C[C@@H](C)N1C(=O)C(C)C` (relative stereo) [Example 55, cis-N-((5-(furan-2-yl)-3-methylpyridin-2-yl)methyl)-1-isobutyryl-6-methyl-4-(phenylsulfonyl)piperazine-2-carboxamide] has an IC50 of 2980 nM and an Emax of 93.5%.
Work on `C[C@@H]1CN(S(=O)(=O)c2ccccc2)C[C@H](C(=O)NCc2ccc3ccccc3c2)N1C(=O)c1cccs1` (relative stereo) [Example 57, cis-6-methyl-N-(naphthalen-2-ylmethyl)-4-(phenylsulfonyl)-1-(thiophene-2-carbonyl)piperazine-2-carboxamide] yielded an IC50 of 2540 nM and an Emax of 94.3%.
Compound `CC[C@@H]1CN(S(=O)(=O)c2ccccc2)C[C@H](C(=O)NCc2ccc(-c3ccco3)cc2)N1C(=O)C(C)C` (relative stereo) [Example 71, cis-6-ethyl-N-(4-(furan-2-yl)benzyl)-1-isobutyryl-4-(phenylsulfonyl)piperazine-2-carboxamide] has an IC50 of 244 nM and an Emax of 100%.
In the case of `CC(C)C(=O)N1[C@@H](C(=O)NCc2ccc(-c3ccco3)cc2)CN(S(=O)(=O)c2ccccc2)C[C@H]1C(F)(F)F` (relative stereo) [Example 78, cis-N-(4-(furan-2-yl)benzyl)-1-isobutyryl-4-(phenylsulfonyl)-6-(trifluoromethyl)piperazine-2-carboxamide], the IC50 is reported as 2670 nM and the Emax is reported as 97.1%.
`CC(C)C(=O)N1[C@H](C)CN(S(=O)(=O)c2ccccc2)C[C@@H]1C(=O)NCc1ccc(OC(C)(F)F)cc1` (single isomer, unassigned) [Example 19-4-1] showed an IC50 of 22.7 nM and an Emax of 100%.
`CC(C)C(=O)N1[C@@H](C)CN(S(=O)(=O)c2ccccc2)C[C@H]1C(=O)NCc1ccc(OC(C)(F)F)cc1` (single isomer, unassigned) [Example 19-4-2] showed an IC50 of 9100 nM and an Emax of 95.6%.
With `CC(C)C(=O)N1[C@H](C)CN(S(=O)(=O)c2ccccc2)C[C@@H]1C(=O)NCc1cnc(-c2ccco2)cn1` (single isomer, unassigned) [Example 35, cis-N-((5-(furan-2-yl)pyrazin-2-yl)methyl)-1-isobutyryl-6-methyl-4-(phenylsulfonyl)piperazine-2-carboxamide] the IC50 was 504 nM and the Emax was 99.7%.
`CC(C)C(=O)N1[C@H](C)CN(S(=O)(=O)c2ccccc2)C[C@@H]1C(=O)NCc1ncc(-c2ccco2)cn1` (single isomer, unassigned) [Example 39] showed an IC50 of 6280 nM and an Emax of 97.8%.
With `CCC(F)(F)Oc1ccc(CNC(=O)[C@H]2CN(S(=O)(=O)c3ccccc3)C[C@@H](C)N2C(=O)C(C)C)cc1` (single isomer, unassigned) [Example 61, cis-N-(4-(1,1-difluoropropoxy)benzyl)-1-isobutyryl-6-methyl-4-(phenylsulfonyl)piperazine-2-carboxamide] the IC50 was 100 nM and the Emax was 93.2%.
In the case of `CC(C)C(=O)N1[C@H](C)CN(S(=O)(=O)c2ccccc2)C[C@@H]1C(=O)NCc1ccc(CC(C)(F)F)cc1` (single isomer, unassigned) [Example 66], the IC50 is reported as 2230 nM and the Emax is reported as 97.9%.
In the case of `O=C(NCc1ccc2ccccc2c1)C1CN(S(=O)(=O)c2ccccc2)CCN1C(=O)c1cccs1` (stereo not shown) [Example 6, N-(naphthalen-2-ylmethyl)-4-(phenylsulfonyl)-1-(thiophene-2-carbonyl)piperazine-2-carboxamide], the IC50 is reported as 2260 nM and the Emax is reported as 94.3%.
For `CCC(C)C(=O)N1CCN(S(=O)(=O)c2ccccc2)CC1C(=O)NCc1ccc2ccccc2c1` (stereo not shown) [Example 10-1, 1-(2-methylbutanoyl)-N-(naphthalen-2-ylmethyl)-4-(phenylsulfonyl)piperazine-2-carboxamide], the IC50 was 4310 nM and the Emax was 101%.
`CCC(=O)N1CCN(S(=O)(=O)c2ccccc2)CC1C(=O)NCc1ccc2ccccc2c1` (stereo not shown) [Example 10-2, N-(naphthalen-2-ylmethyl)-4-(phenylsulfonyl)-1-propionylpiperazine-2-carboxamide] was tested, and the IC50 was 8900 nM and the Emax was 97.4%.
With `CCCC(=O)N1CCN(S(=O)(=O)c2ccccc2)CC1C(=O)NCc1ccc2ccccc2c1` (stereo not shown) [Example 10-3, 1-butyryl-N-(naphthalen-2-ylmethyl)-4-(phenylsulfonyl)piperazine-2-carboxamide] the IC50 was 12200 nM and the Emax was 87.8%.
Work on `CC(C)C(=O)N1CCN(S(=O)(=O)c2ccccc2)CC1C(=O)NCc1ccc2ccccc2c1` (stereo not shown) [Example 10-4, 1-isobutyryl-N-(naphthalen-2-ylmethyl)-4-(phenylsulfonyl)piperazine-2-carboxamide] yielded an IC50 of 2610 nM and an Emax of 98.7%.
`O=C(NCc1ccc2ccccc2c1)C1CN(S(=O)(=O)c2ccccc2)CCN1C(=O)C1CC1` (stereo not shown) [Example 10-5, 1-(cyclopropanecarbonyl)-N-(naphthalen-2-ylmethyl)-4-(phenylsulfonyl)piperazine-2-carboxamide] gave an IC50 of 8990 nM and an Emax of 98.7%.
With `O=C(NCc1ccc2ccccc2c1)C1CN(S(=O)(=O)c2ccccc2)CCN1C(=O)C1CCC1` (stereo not shown) [Example 10-6, 1-(cyclobutanecarbonyl)-N-(naphthalen-2-ylmethyl)-4-(phenylsulfonyl)piperazine-2-carboxamide] the IC50 was 5000 nM and the Emax was 96.8%.
For `O=C(NCc1ccc2ccccc2c1)C1CN(S(=O)(=O)c2ccccc2)CCN1C(=O)c1nccs1` (stereo not shown) [Example 10-7, N-(naphthalen-2-ylmethyl)-4-(phenylsulfonyl)-1-(thiazole-2-carbonyl)piperazine-2-carboxamide], the IC50 was 1870 nM and the Emax was 98.9%.
Compound `O=C(NCc1ccc2ccccc2c1)C1CN(S(=O)(=O)c2ccccc2)CCN1C(=O)c1ccsc1` (stereo not shown) [Example 10-8, N-(naphthalen-2-ylmethyl)-4-(phenylsulfonyl)-1-(thiophene-3-carbonyl)piperazine-2-carboxamide] has an IC50 of 4670 nM and an Emax of 90%.
In the case of `O=C(NCc1ccc2ccccc2c1)C1CN(S(=O)(=O)c2ccccc2)CCN1C(=O)c1ccco1` (stereo not shown) [Example 10-9, 1-(furan-2-carbonyl)-N-(naphthalen-2-ylmethyl)-4-(phenylsulfonyl)piperazine-2-carboxamide], the IC50 is reported as 6170 nM and the Emax is reported as 93.8%.
`O=C(NCc1ccc2ccccc2c1)C1CN(S(=O)(=O)c2ccccc2)CCN1C(=O)c1cncs1` (stereo not shown) [Example 10-10, N-(naphthalen-2-ylmethyl)-4-(phenylsulfonyl)-1-(thiazole-5-carbonyl)piperazine-2-carboxamide] gave an IC50 of 11700 nM and an Emax of 93.9%.
`Cc1ccccc1C(=O)N1CCN(S(=O)(=O)c2ccccc2)CC1C(=O)NCc1ccc2ccccc2c1` (stereo not shown) [Example 10-11, 1-(2-methylbenzoyl)-N-(naphthalen-2-ylmethyl)-4-(phenylsulfonyl)piperazine-2-carboxamide] was tested, and the IC50 was 100000 nM and the Emax was 19.4%.
`Cc1ccsc1C(=O)N1CCN(S(=O)(=O)c2ccccc2)CC1C(=O)NCc1ccc2ccccc2c1` (stereo not shown) [Example 10-12, 1-(3-methylthiophene-2-carbonyl)-N-(naphthalen-2-ylmethyl)-4-(phenylsulfonyl)piperazine-2-carboxamide] was tested, and the IC50 was 2430 nM and the Emax was 89.4%.
